From patent publication US8440648B2, “Methods and compositions for treatment of intraepithelial neoplasia” (Erimos Pharmaceuticals LLC, priority 2004, dated 2013)

Key:
[1] = Serum levels of M4N in the fourteen day rabbit intravaginal study; assay type: in vivo, New Zealand White rabbits; settings: M4N 20 mg/g in white petrolatum, 1 mL intravaginally daily, rabbits; levels inconsistent, minimal absorption
Protocol: Fourteen Day Rabbit Intravaginal Topical Toxicology Study. […] Ten female rabbits (5 per group) were dosed.

[2] = test system: Cervical Intraepithelial Neoplasia (CIN); assay: Pilot clinical trial of intravaginal M4N: preliminary efficacy from cervical biopsies; assay type: in vivo, women; settings: three patients, 3 weekly doses of 1% M4N in white petrolatum
From the text: (§1) This study was designed to look at the systemic and local toxicity of tetra-O-methyl NDGA (M4N) administered intravaginally to women once a week for three weeks. Patients, at the time of screening, had visible cervical lesions, were HPV positive, and had previous biopsy confirmed Cervical Intraepithelial Neoplasia (CIN). Cervical biopsies were taken at Day 1 and follow up biopsies were taken at Day 71. Five patients have been enrolled in the study, and three patients have completed the study through Day 71.
Preliminary efficacy data was collected from cervical biopsies at Day 1 and Day 71 from the three patients that completed the Day 71 visit after receiving 3 doses of the 1% formulation of M4N.

[3] = test system: women with Cervical Intraepithelial Neoplasia; assay: Pilot clinical trial of intravaginal M4N: systemic and local toxicity; assay type: in vivo
From the text: as §1
(§2) The first four patients received 5 mL of a 1% formulation of M4N in white petrolatum once weekly for each of three weekly doses. […] One patient received 5 mL of a 2% M4N formulation in white petrolatum at each of two weekly doses to date. […] The relationship to the study drug administration is unknown.

[4] = test system: New Zealand White rabbits; assay: Fourteen day rabbit intravaginal topical toxicology study (local and systemic toxicity); settings: M4N 20 mg/g in white petrolatum
Protocol: This study was designed to look at the local and systemic toxicity of tetra-O-methyl NDGA (M4N) administered intravaginally in New Zealand White rabbits for 14 days. Rabbits were dosed daily with 1 mL of a white petrolatum formulation of M4N (20 mg/g) or placebo. Ten female rabbits (5 per group) were dosed. Local effects of drug were scored using the Draize scoring system daily, and gross pathology and histopathology was obtained at necropsy on termination of the dosing period.

[5] = Pilot clinical trial of intravaginal M4N: serum levels; assay type: in vivo; settings: after intravaginal administration of the 1% formulation in white petrolatum, women
From the text: as §1, §2

[6] = 1 mL intravaginally daily for 14 days

COc1ccc(C[C@@H](C)[C@@H](C)Cc2ccc(OC)c(OC)c2)cc1OC [M4N, meso-1,4-bis(3,4-dimethoxyphenyl)-2,3-dimethylbutane]
Serum level at peak concentration [1]: less than 10 ng/mL
Response in cervical biopsies, Day 71 versus Day 1 [2]: one patient had a complete response, one patient had a partial response, and one patient showed disease progression
Irritation or toxicity ([3]; 5 mL of 1% M4N in white petrolatum intravaginally once weekly, three doses, four patients): No irritation or toxicity was reported
Vaginal irritation or toxicity ([3]; 5 mL of 2% M4N in white petrolatum intravaginally, two weekly doses, one patient): No vaginal irritation or toxicity was reported
Vulvar irritation ([3]; 5 mL of 2% M4N in white petrolatum intravaginally, two weekly doses, one patient, relationship to drug unknown): minor vulvar irritation was reported
Vaginal observations: mild edema, animals affected [4, 6]: 2/5
Vaginal observations: mild erythema, animals affected [4, 6]: 3/5
Survival until scheduled termination ([4]; 1 mL intravaginally daily for 14 days, rabbits): All animals survived until scheduled termination
Vaginal observations: minimal edema, animals affected ([4]; 1 mL intravaginally daily for 14 days, control 2/5): 1/5
Weekly clinical and twice daily cage-side observations ([4]; intravaginally daily for 14 days): No findings were noted
Clinical pathology findings ([4]; intravaginally daily for 14 days, considered incidental): lower absolute basophil counts, and ALT values
Histopathology findings ([4]; intravaginally daily for 14 days, relation to drug unknown): in one M4N-treated rabbit, heterophil infiltrates were seen in the vaginal mucosa
Serum levels [5]: below limit of quantification
